Columns and labels:
Assay type in all cases: cell-based
RL cells = assay: RT2 Glucocorticoid signaling PCR array, RL (Table 4e, printed RI) cell line; details: 4 days, Cpd44 1 uM, Pred 10-fold below 4-day IC50, vs DMSO, B2M-normalized
SU-DHL4 cells [1] = assay: RT2 Glucocorticoid signaling PCR array, SU-DHL4 (SUDHL4) cell line (Table 4f); details: SUDHL4, 4 days, vs DMSO
From the text: Expression levels of (A). Sestrin; (B). TNF and (C) GILZ normalized to DMSO controls for each cell line with the indicated single agent or combination.

SMARCB1 protein levels = assay: SMARCB1 (INI1) western blot in lymphoma cells; details: single agent treatment
From the text: Glucocorticoid bound GR molecules move to the nucleus and can act as either transcriptional activator or repressor, depending on the cellular environment. […] Accessibility to GR binding sites can further be enhanced by ATP-dependent chromatin remodeling, and the SWI/SNF complex plays a key role in this activity. Not wishing to be bound by a particular theory or a specific mechanism of action, it is conceivable that aberrant chromatin repression, induced by EZH2 mediated hypertrimethylation of H3K27, can block some of the otherwise accessible GR binding sites, interfering with normal GR mediated gene induction or repression.

SU-DHL4 cells [2] = assay: RT2 Glucocorticoid signaling PCR array, SU-DHL4 (SUDHL4) cell line (Table 4f); details: SUDHL4, 4 days, vs DMSO; remark: listed apart in the source

Compound `C[C@]12C=CC(=O)C=C1CC[C@@H]1[C@@H]2[C@@H](O)C[C@@]2(C)[C@H]1CC[C@]2(O)C(=O)CO` [Prednisolone, prednisolone] has a ΔΔCT (RL cells; ADARB1 mRNA) of 0.413, a ΔΔCT (RL cells; AFF1 mRNA) of −1.390 and a ΔΔCT (RL cells; AK2 mRNA) of 0.686. The ΔΔCT (RL cells; AMPD3 mRNA) was −0.544, the ΔΔCT (RL cells; ANGPTL4 mRNA) was 1.668 and the ΔΔCT (RL cells; ANXA4 mRNA) was 0.131. It also gave a ΔΔCT (RL cells; ARID68 mRNA) of 0.833, a ΔΔCT (RL cells; ASPH mRNA) of 0.771 and a ΔΔCT (RL cells; BCL6 mRNA) of 0.937. The ΔΔCT (RL cells; CEBPB mRNA) was 2.638, the ΔΔCT (RL cells; CREB1 mRNA) was 0.483 and the ΔΔCT (RL cells; CREB3L4 mRNA) was 0.129. It also gave a ΔΔCT (RL cells; DDIT4 mRNA) of 1.431, a ΔΔCT (RL cells; DUSP1 mRNA) of −0.153 and a ΔΔCT (RL cells; EDN1 mRNA) of 6.595. It also gave a ΔΔCT (RL cells; EHD3 mRNA) of 0.055, a ΔΔCT (RL cells; FK8PS mRNA) of −0.333 and a ΔΔCT (RL cells; FOSL2 mRNA) of 2.300. For the same compound, the ΔΔCT (RL cells; GDPD1 mRNA) was 0.711, the ΔΔCT (RL cells; GLUL mRNA) was 1.007 and the ΔΔCT (RL cells; GOT1 mRNA) was 1.467. For the same compound, the ΔΔCT (RL cells; H6PD mRNA) was 0.935, the ΔΔCT (RL cells; HNRPLL mRNA) was 0.789 and the ΔΔCT (RL cells; IL1RN mRNA) was −0.808. The ΔΔCT (RL cells; IL6R mRNA) was 0.885, the ΔΔCT (RL cells; IL10 mRNA) was −0.083 and the ΔΔCT (RL cells; KLF13 mRNA) was 0.346. For the same compound, the ΔΔCT (RL cells; LOX mRNA) was −0.132, the ΔΔCT (RL cells; MT2A mRNA) was 1.656 and the ΔΔCT (RL cells; NFKBIA mRNA) was 0.853. For the same compound, the ΔΔCT (RL cells; NR3C1 mRNA) was 0.952, the ΔΔCT (RL cells; PDCD7 mRNA) was 0.394 and the ΔΔCT (RL cells; PDP1 mRNA) was 0.742. The ΔΔCT (RL cells; PER1 mRNA) was 2.230, the ΔΔCT (RL cells; PER2 mRNA) was 0.250 and the ΔΔCT (RL cells; PLEKHF1 mRNA) was 1.075. For the same compound, the ΔΔCT (RL cells; POU2F2 mRNA) was 0.797, the ΔΔCT (RL cells; RA5A3 mRNA) was 1.543 and the ΔΔCT (RL cells; RGS2 mRNA) was 0.772. For the same compound, the ΔΔCT (RL cells; SGK1 mRNA) was 0.848, the ΔΔCT (RL cells; SLC10A6 mRNA) was −1.725 and the ΔΔCT (RL cells; SNTA1 mRNA) was 1.144. For the same compound, the ΔΔCT (RL cells; SPHK1 mRNA) was 2.618, the ΔΔCT (RL cells; SPSB1 mRNA) was 2.005 and the ΔΔCT (RL cells; STAT5A mRNA) was 0.789. For the same compound, the ΔΔCT (RL cells; STAT5B mRNA) was 0.512, the ΔΔCT (RL cells; TBL1XR1 mRNA) was 0.794 and the ΔΔCT (RL cells; TNF mRNA) was −0.598. For the same compound, the ΔΔCT (RL cells; TNFAIP3 mRNA) was 1.561, the ΔΔCT (RL cells; TSC22D3 mRNA) was −1.431 and the ΔΔCT (RL cells; USP2 mRNA) was −0.661. For the same compound, the ΔΔCT (RL cells; USPS4 mRNA) was 0.491, the ΔΔCT (RL cells; VDR mRNA) was 1.247 and the ΔΔCT (RL cells; VLDLR mRNA) was −1.862. For the same compound, the ΔΔCT (RL cells; ZFP36 mRNA) was 0.925, the ΔΔCT (RL cells; ZNF281 mRNA) was 0.371 and the “ΔΔCT, BCL6” value (SU-DHL4 cells [1]) was −0.793. For the same compound, the “ΔΔCT, CEBPB” value (SU-DHL4 cells [1]) was 0.528, the “ΔΔCT, DDIT4” value (SU-DHL4 cells [1]) was −1.931 and the “ΔΔCT, DUSP1” value (SU-DHL4 cells [1]) was −1.093. For the same compound, the “ΔΔCT, NFKBIA” value (SU-DHL4 cells [1]) was −0.710, the “ΔΔCT, PDP1” value (SU-DHL4 cells [1]) was −0.521 and the “ΔΔCT, POU2F2” value (SU-DHL4 cells [1]) was −0.675. The “ΔΔCT, RASA3” value (SU-DHL4 cells [1]) was −0.723, the “ΔΔCT, SPHK1” value (SU-DHL4 cells [1]) was 0.331 and the “ΔΔCT, STAT5A” value (SU-DHL4 cells [1]) was −0.389. The “ΔΔCT, TNF” value (SU-DHL4 cells [1]) was −2.845, the “ΔΔCT, VDR” value (SU-DHL4 cells [1]) was −0.996 and the “ΔΔCT, VLDLR” value (SU-DHL4 cells [1]) was 1.191. For the same compound, the “ΔΔCT, ZNF281” value (SU-DHL4 cells [1]) was −0.739, the SMARCB1 protein levels (SMARCB1 protein levels) was “no effect” and the “ΔΔCT, ADARB1” value (SU-DHL4 cells [2]) was −0.516. For the same compound, the “ΔΔCT, AFF1” value (SU-DHL4 cells [2]) was −0.429, the “ΔΔCT, AK2” value (SU-DHL4 cells [2]) was −1.076 and the “ΔΔCT, AMPD3” value (SU-DHL4 cells [2]) was −0.891. For the same compound, the “ΔΔCT, ANGPTL4” value (SU-DHL4 cells [2]) was −1.047, the “ΔΔCT, ANXA4” value (SU-DHL4 cells [2]) was −0.890 and the “ΔΔCT, ARID68” value (SU-DHL4 cells [2]) was −0.131. The “ΔΔCT, ASPH” value (SU-DHL4 cells [2]) was −0.451, the “ΔΔCT, ATF4” value (SU-DHL4 cells [2]) was −0.279 and the “ΔΔCT, CEBPA” value (SU-DHL4 cells [2]) was −0.301. For the same compound, the “ΔΔCT, CREB1” value (SU-DHL4 cells [2]) was −0.548, the “ΔΔCT, CREB3” value (SU-DHL4 cells [2]) was −0.560 and the “ΔΔCT, CREB3L4” value (SU-DHL4 cells [2]) was −0.199. The “ΔΔCT, CYB561” value (SU-DHL4 cells [2]) was −0.720, the “ΔΔCT, EHD3” value (SU-DHL4 cells [2]) was −1.325 and the “ΔΔCT, FK8PS” value (SU-DHL4 cells [2]) was −1.582. The “ΔΔCT, GDPD1” value (SU-DHL4 cells [2]) was −0.409, the “ΔΔCT, GHRHR” value (SU-DHL4 cells [2]) was 0.184 and the “ΔΔCT, GOT1” value (SU-DHL4 cells [2]) was −0.402. For the same compound, the “ΔΔCT, H6PD” value (SU-DHL4 cells [2]) was 0.160, the “ΔΔCT, HNRPLL” value (SU-DHL4 cells [2]) was −0.286 and the “ΔΔCT, IL6R” value (SU-DHL4 cells [2]) was −0.524. The “ΔΔCT, IL10” value (SU-DHL4 cells [2]) was −0.130, the “ΔΔCT, KLF9” value (SU-DHL4 cells [2]) was −0.821 and the “ΔΔCT, KLF13” value (SU-DHL4 cells [2]) was −0.934. The “ΔΔCT, MT2A” value (SU-DHL4 cells [2]) was 0.129, the “ΔΔCT, NR3C1” value (SU-DHL4 cells [2]) was −0.427 and the “ΔΔCT, PDCD7” value (SU-DHL4 cells [2]) was 0.403. The “ΔΔCT, PER1” value (SU-DHL4 cells [2]) was −0.786, the “ΔΔCT, PER2” value (SU-DHL4 cells [2]) was −1.101 and the “ΔΔCT, PIK3R1” value (SU-DHL4 cells [2]) was −0.892. For the same compound, the “ΔΔCT, PLEKHF1” value (SU-DHL4 cells [2]) was −1.285, the “ΔΔCT, POU2F1” value (SU-DHL4 cells [2]) was −0.432 and the “ΔΔCT, RGS2” value (SU-DHL4 cells [2]) was −0.372. The “ΔΔCT, RHOB” value (SU-DHL4 cells [2]) was 0.724, the “ΔΔCT, SGK1” value (SU-DHL4 cells [2]) was −0.346 and the “ΔΔCT, SLC10A6” value (SU-DHL4 cells [2]) was −3.874. The “ΔΔCT, SLC19A2” value (SU-DHL4 cells [2]) was −0.995, the “ΔΔCT, SLC22A5” value (SU-DHL4 cells [2]) was −0.171 and the “ΔΔCT, SNTA1” value (SU-DHL4 cells [2]) was −0.687. The “ΔΔCT, SPSB1” value (SU-DHL4 cells [2]) was 0.068, the “ΔΔCT, STAT5B” value (SU-DHL4 cells [2]) was −0.268 and the “ΔΔCT, TBL1XR1” value (SU-DHL4 cells [2]) was −0.721. For the same compound, the “ΔΔCT, TNFAIP3” value (SU-DHL4 cells [2]) was 0.835, the “ΔΔCT, TSC22D3” value (SU-DHL4 cells [2]) was −2.169 and the “ΔΔCT, USP2” value (SU-DHL4 cells [2]) was −1.681. The “ΔΔCT, USPS4” value (SU-DHL4 cells [2]) was −1.060, the “ΔΔCT, ZFP36” value (SU-DHL4 cells [2]) was −0.541 and the “ΔΔCT, ZHX3” value (SU-DHL4 cells [2]) was −0.868.

From patent US10456407B2, “Combination therapy for treating cancer” (Epizyme, Inc., priority 2015, dated 2019)
